Reference: patent US7384931B2, “Constrained compounds as CGRP-receptor antagonists” (Bristol-Myers Squibb Company, priority 2004, dated 2008)
pIC50: −log10 of the molar value. Where a name gives a salt, the structure may show the parent alone.

Molecular target: CGRP receptor (Homo sapiens, UniProt O60894+Q16602)
Assay: CGRP radioligand binding assay ([125I]-CGRP displacement, SK-N-MC homogenate)
Parameters: endogenous in cells; host or cells: SK-N-MC cells (homogenate/membrane pellet)
Conditions: displacement of [125I]-CGRP, room temperature 2 h
Procedure: CGRP Binding Assay. Tissue Culture. SK—N-MC cells were grown at 37° C. in 5% CO2 as a monolayer in medium consisting of MEM with Earle's salts and L-glutamine (Gibco) supplemented with 10% fetal bovine serum (Gibco). Cell Pellets. The cells were rinsed twice with phosphate-buffered saline (155 mM NaCl, 3.3 mM Na2HPO4, 1.1 mM KH2PO4, pH 7.4), and incubated for 5-10 min. at 4° C. in hypotonic lysis buffer consisting of 10 mM Tris (pH 7.4) and 5 mM EDTA. The cells were transferred from plates to polypropylene tubes (16×100 mm) and homogenized using a polytron. Homogenates were centrifuged at 32,000×g for 30 min. The pellets were resuspended in cold hypotonic lysis buffer with 0.1% mammalian protease inhibitor cocktail (Sigma) and assayed for protein concentration. The SK—N-MC homogenate was then aliquoted and stored at −80° C. until needed.
Radioligand Binding Assay. The compounds of invention were solubilized and carried through serial dilutions using 100% DMSO. Aliquots from the compound serial dilutions were further diluted 25 fold into assay buffer (50 mM Tris-Cl pH 7.5, 5 mM MgCl2, 0.005% Triton X-100) and transferred (volume 50 μl) into 96 well assay plates. [^125I]-CGRP (Amersham Biosciences) was diluted to 60 pM in assay buffer and a volume of 50 μl was added to each well. SK—N-MC pellets were thawed, diluted in assay buffer with fresh 0.1% mammalian protease inhibitor cocktail (Sigma), and homogenized again. SK—N-MC homogenate (5 μg/well) was added in a volume of 100 μl. The assay plates were then incubated at room temperature for 2 h. Assays were stopped by addition of excess cold wash buffer (20 mM Tris-Cl pH 7.5, 0.1% BSA) immediately followed by filtration over glass fiber filters (Whatman GF/B) previously soaked in 0.5% PEI. Non-specific binding was defined with 1 μM beta-CGRP. Protein bound radioactivity was determined using a gamma or scintillation counter. The IC50 was defined as the concentration of a compound of invention required to displace 50% of radioligand binding.

Chain of CGRP receptor (Q16602 23-461): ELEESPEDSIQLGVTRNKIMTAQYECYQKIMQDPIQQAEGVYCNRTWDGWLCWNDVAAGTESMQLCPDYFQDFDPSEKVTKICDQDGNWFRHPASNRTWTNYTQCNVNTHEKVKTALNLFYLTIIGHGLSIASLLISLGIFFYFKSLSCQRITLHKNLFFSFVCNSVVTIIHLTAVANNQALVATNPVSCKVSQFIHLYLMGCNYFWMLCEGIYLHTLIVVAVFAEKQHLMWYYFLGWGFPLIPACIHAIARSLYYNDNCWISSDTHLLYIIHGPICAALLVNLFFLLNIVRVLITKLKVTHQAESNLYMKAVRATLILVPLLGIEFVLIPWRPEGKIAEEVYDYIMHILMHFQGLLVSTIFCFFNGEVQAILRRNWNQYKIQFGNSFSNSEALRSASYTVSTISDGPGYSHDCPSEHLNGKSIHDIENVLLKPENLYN
Chain of CGRP receptor (O60894 27-148): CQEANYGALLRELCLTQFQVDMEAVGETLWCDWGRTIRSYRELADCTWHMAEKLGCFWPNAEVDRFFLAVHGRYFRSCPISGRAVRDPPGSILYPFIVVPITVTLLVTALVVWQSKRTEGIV

| pIC50 | Compound |
| --- | --- |
| 7.00 to 8.00 | CC(C)(C)CN1Cc2c(cc(Cl)c3[nH]ncc23)C[C@@H](CC(=O)N2CCC(c3nc4ccccc4[nH]c3=O)CC2)C1=O [Example 48, (S)-4-Chloro-9-neopentyl-7-(2-oxo-2-(4-(3-oxo-3,4-dihydroquinoxalin-2-yl)piperidin-1-yl)ethyl)-6,7,9,10-tetrahydroazepino[3,4-e]indazol-8(3H)-one] |
| 8.00 to 10.00 | O=C(C[C@@H]1Cc2cc(Cl)c3[nH]ncc3c2CN(Cc2ccncc2)C1=O)N1CCC(c2cc3cccc(F)c3[nH]c2=O)CC1 [Example 51, (S)-4-Chloro-7-(2-(4-(8-fluoro-2-oxo-1,2-dihydroquinolin-3-yl)piperidin-1-yl)-2-oxoethyl)-9-(pyridin-4-ylmethyl)-6,7,9,10-tetrahydroazepino[3,4-e]indazol-8(3H)-one] |
| 6.00 to 7.00 | Cc1cc2c(cc1N)CN(Cc1ccccc1)C(=O)[C@H](NC(=O)N1CCC(N3Cc4ccccc4NC3=O)CC1)C2 [Example 55, (R)-N-(8-Amino-2-benzyl-7-methyl-3-oxo-2,3,4,5-tetrahydro-1H-benzo[c]azepin-4-yl)-4-(2-oxo-1,2-dihydroquinazolin-3(4H)-yl)piperidine-1-carboxamide trifluoroacetate] |
| 6.00 to 7.00 | Cc1c(N)ccc2c1CN(Cc1ccccc1)C(=O)[C@H](NC(=O)N1CCC(N3Cc4ccccc4NC3=O)CC1)C2 [Example 56, trifluoroacetate] |
| 6.00 to 7.00 | O=C(N[C@@H]1Cc2ccc3[nH]ncc3c2CN(C2CCNC2)C1=O)N1CCC(N2Cc3ccccc3NC2=O)CC1 (stereo partly drawn) [Example 63, 4-(2-oxo-1,2-dihydroquinazolin-3(4H)-yl)-N-((R)-8-oxo-9-(pyrrolidin-3-yl)-3,6,7,8,9,10-hexahydroazepino[3,4-e]indazol-7-yl)piperidine-1-carboxamide] |
| < 6.00 | CC(C)(C)CN1Cc2c(ccc3[nH]ncc23)C[C@@H](CCN2CCC(N3Cc4ccccc4NC3=O)CC2)C1=O [Example 64, (S)-9-neopentyl-7-(2-(4-(2-oxo-1,2-dihydroquinazolin-3(4H)-yl)piperidin-1-yl)ethyl)-6,7,9,10-tetrahydroazepino[3,4-e]indazol-8(3H)-one] |
| < 6.00 | CC(C)(C)CN1Cc2c(ccc3[nH]ncc23)C[C@@H](NC(=O)N2CCC(c3cc(-c4ccccc4)no3)CC2)C1=O [Example 65, (R)-N-(9-neopentyl-8-oxo-3,6,7,8,9,10-hexahydroazepino[3,4-e]indazol-7-yl)-4-(3-phenylisoxazol-5-yl)piperidine-1-carboxamide] |
| 7.00 to 8.00 | CC(C)(C)CN1Cc2c(ccc3[nH]ncc23)C[C@H](CC(=O)N2CCC(N3Cc4ccccc4NC3=O)CC2)C1=O [Example 66, 9-(2,2-dimethyl-propyl)-7-(R)-{2-oxo-2-[4-(2-oxo-1,4-dihydro-2H-quinazolin-3-yl)-piperidin-1-yl]-ethyl}-6,7,9,10-tetrahydro-3H-2,3,9-triaza-cyclohepta[e]inden-8-one] |
| 7.00 to 8.00 | CC(C)(C)CN1Cc2c(ccc3[nH]ncc23)C[C@@H](NC(=O)N2CCC(C3Cc4ccccc4NC3=O)CC2)C1=O (stereo partly drawn) [Example 67, N-((R)-9-neopentyl-8-oxo-3,6,7,8,9,10-hexahydroazepino[3,4-e]indazol-7-yl)-4-(2-oxo-1,2,3,4-tetrahydroquinolin-3-yl)piperidine-1-carboxamide] |
| 6.00 to 7.00 | CC(C)(C)CN1Cc2c(ccc3[nH]ncc23)C[C@@H](NC(=O)N2CCN(C3Cc4ccccc4NC3=O)CC2)C1=O (stereo partly drawn) [Example 68, N-((R)-9-Neopentyl-8-oxo-3,6,7,8,9,10-hexahydroazepino[3,4-e]indazol-7-yl)-4-(2-oxo-1,2,3,4-tetrahydroquinolin-3-yl)piperazine-1-carboxamide] |
| 7.00 to 8.00 | CC(C)(C)CN1Cc2c(ccc3[nH]ncc23)C[C@@H](NC(=O)N2CCC(N3Cc4ccccc4CC3=O)CC2)C1=O [Example 69, (R)-N-(9-Neopentyl-8-oxo-3,6,7,8,9,10-hexahydroazepino[3,4-e]indazol-7-yl)-4-(3-oxo-3,4-dihydroisoquinolin-2(1H)-yl)piperidine-1-carboxamide] |
| 6.00 to 7.00 | CC(C)(C)CN1Cc2c(ccc3[nH]ncc23)C[C@@H](CC(=O)N2CCC3(CC2)NC(=O)Nc2ccccc23)C1=O [Example 71, 1-[[7-(S)-9-(2,2-Dimethylpropyl)-3,6,7,8,9,10-hexahydro-8-oxoazepino[3,4-e]indazol-7-yl]acetyl]-spiro[piperidine-4,4′(1′H)-quinazolin]-2′(3′H)-one] |
| < 6.00 | CC(C)(C)CN1Cc2c(ccc3[nH]ncc23)C[C@@H](CC(=O)N2CCC(c3cnc4ccccc4c3)CC2)C1=O [Example 72, 1-[[7-(S)-9-(2,2-Dimethylpropyl)-3,6,7,8,9,10-hexahydro-8-oxoazepino[3,4-e]indazol-7-yl]acetyl]-4-(3-quinolinyl)piperidine] |
| < 6.00 | COc1cc2ccccc2cc1C1CCN(C(=O)C[C@@H]2Cc3cc(Cl)c4[nH]ncc4c3CN(CC(C)(C)C)C2=O)CC1 [Example 73, 1-[[7-(S)-4-choro-9-(2,2-Dimethylpropyl)-3,6,7,8,9,10-hexahydro-8-oxoazepino[3,4-e]indazol-7-yl]acetyl]-4-(3-methoxy-2-naphthalenyl)piperidine] |
| < 6.00 | CC(C)(C)CN1Cc2c(cc(Cl)c3[nH]ncc23)C[C@@H](CC(=O)N2CCC(c3cc4ccccc4cc3O)CC2)C1=O [Example 74, 1-[[7-(S)-4-choro-9-(2,2-Dimethylpropyl)-3,6,7,8,9,10-hexahydro-8-oxoazepino[3,4-e]indazol-7-yl]acetyl]-4-(3-hydroxy-2-naphthalenyl)piperidine] |
| 8.00 to 10.00 | O=C(C[C@@H]1Cc2cc(Cl)c3[nH]ncc3c2CN(CC(F)(F)F)C1=O)N1CCC(N2Cc3ccccc3NC2=O)CC1 [Example 75, 1-[[(7S)-4-Chloro-3,6,7,8,9,10-hexahydro-8-oxo-9-(2,2,2-trifluoroethly)azepino[3,4-e]indazol-7-yl]acetyl]-4-(1,4-dihydro-2-oxo-3(2H)-quinazolinyl)-piperidine] |
| 7.00 to 8.00 | CC(C)(C)CN1Cc2c(cc(Cl)c3[nH]ncc23)C[C@@H](CC(=O)N2CCC(C3C(=O)c4ccccc4NS3(=O)=O)CC2)C1=O (stereo partly drawn) [Example 76, 1-[[7-(S)-4-choro-9-(2,2-Dimethylpropyl)-3,6,7,8,9,10-hexahydro-8-oxoazepino[3,4-e]indazol-7-yl]acetyl]-4-(3,4-dihydro-2,2-dioxido-4-oxo-1H-2,1-benzothiazin-3-yl)piperidine] |
| 8.00 to 10.00 | CC(C)(C)CN1Cc2c(cc(Cl)c3[nH]ncc23)C[C@@H](CC(=O)N2CCC(N3Cc4cccnc4NC3=O)CC2)C1=O [Example 78] |
| 8.00 to 10.00 | CC(C)(C)CN1Cc2c(cc(Cl)c3[nH]ncc23)C[C@@H](CC(=O)N2CCC(c3cc4cccnc4[nH]c3=O)CC2)C1=O [Example 79, 1-[[(7S)-4-chloro-9-(2,2-dimethylpropyl)-3,6,7,8,9,10-hexahydro-8-oxoazepino[3,4-e]indazol-7-yl]acetyl]-4-(1,2-dihydro-2-oxo-1,8-naphthyridin-3-yl)-piperidine] |
| 8.00 to 10.00 | O=C(C[C@@H]1Cc2cc(Cl)c3[nH]ncc3c2CN(Cc2ccncc2)C1=O)N1CCC(c2cc3ccccc3c[n+]2[O-])CC1 [Example 82] |
| 6.00 to 7.00 | O=C(C[C@@H]1Cc2cc(Cl)c3[nH]ncc3c2CN(Cc2ccncc2)C1=O)N1CCC(c2ccc(-c3ccccc3)c[n+]2[O-])CC1 [Example 83, (S)-1-[[(7S)-4-chloro-3,6,7,8,9,10-hexahydro-8-oxo-9-(4-pyridinylmethyl)azepino[3,4-e]indazol-7-yl]acetyl]-4-(1-oxido-5-phenyl-2-pyridinyl)-piperidine] |
| 6.00 to 7.00 | CC(C)(C)CN1Cc2c(cc(Cl)c3[nH]ncc23)C[C@@H](CC(=O)N2CCC(c3ccc(-c4ccccc4)c[n+]3[O-])CC2)C1=O [Example 84, (S)-1-[[(7S)-4-chloro-9-(2,2-dimethylpropyl)-3,6,7,8,9,10-hexahydro-8-oxoazepino[3,4-e]indazol-7-yl]acetyl]-4-(1-oxido-5-phenyl-2-pyridinyl)-piperidine] |
| 8.00 to 10.00 | CC(C)(C)CN1Cc2c(ccc3[nH]ncc23)CC(N/C(=N/C#N)N2CCC(N3Cc4ccccc4NC3=O)CC2)C1=O (stereo not drawn) [Example 88, (E, Z)-N′-cyano-N-(9-neopentyl-8-oxo-3,6,7,8,9,10-hexahydroazepino[3,4-e]indazol-7-yl)-4-(2-oxo-1,2-dihydroquinazolin-3(4H)-yl)piperidine-1-carboxamidine] |
| 8.00 to 10.00 | O=C(C[C@@H]1Cc2cc(Cl)c3[nH]ncc3c2CN(CC(F)(F)F)C1=O)N1CCC(c2cc3cccnc3[nH]c2=O)CC1 [Example 89, (S)-4-chloro-7-(2-oxo-2-(4-(2-oxo-1,2-dihydro-1,8-naphthyridin-3-yl)piperidin-1-yl)ethyl)-9-(2,2,2-trifluoroethyl)-6,7,9,10-tetrahydroazepino[3,4-e]indazol-8(3H)-one] |
